Source: a melting point compilation (Tetko et al.; mined from patent text by program, amines drawn as free bases though some values may be those of a salt)

| SMILES | melting point [°C] |
| --- | --- |
| CC1(C)SCC(CO)S1 (configuration not stated) | 45 to 50 |
| CN1C=CCC(C(=O)OC2CCC3C4CCC5=CC(=O)CCC5(C)C4CCC23C)=C1 (configuration not stated) | 172 to 175 |
| COC(=O)C1Oc2ccc([N+](=O)[O-])cc2O1 (configuration not stated) | 90 to 92 |
| Nc1nc2c(ncn2OCC(O)CP(=O)(O)O)c(=O)[nH]1 (configuration not stated) | 258 to 260 |
| NS(=O)(=O)c1cccc(-c2cc(-c3nc(-c4ccc(C(F)(F)F)nc4)cc(C(F)F)n3)ccn2)c1 | 264 |
| COc1cc2c(cc1OC)C(C=Cc1ccc(N)cc1)=NNC(C)C2 (configuration not stated) | 152 to 154 |
| O=C(O)CCCCCc1cccc2c(I)ncn12 | 163 to 165 |
| COC(=O)CCCCCC(c1ccccc1)c1c(C)c(O)c(C)c(C)c1OC(C)=O (configuration not stated) | 146 to 148 |
| COc1ccc2c(c1)CCC(CC(=O)N1CCCCC1)C2 (configuration not stated) | 59 to 61 |
| CC(=O)Oc1cnccc1CCCOc1cccnc1Oc1cccc(Cl)c1 | 107 to 126 |
| COc1cc(C(=O)CCCN2CCC(OC(=O)c3cc(Cl)c(N)c4cc(C)oc34)CC2)cc(OC)c1OC | 129 |
| CCN1C(=O)C(C)(C)C(=O)N(C)c2cc(CN(CCn3ccc4oc(C)cc4c3=O)Cc3cc(COC)nn3C)ccc21 | 113 to 115 |
| COc1ccc(C(=O)c2cccc(C#N)c2)cc1 | 85 to 88 |
| C1=C2CCC=C2CCCCCCCCC1 | 97 to 102 |
| CCN(CC)CC1=Cc2ccc(Cl)cc2S1(=O)=O | 58 to 59 |
| CCCc1nc(C=NNC(=S)SC)c(C)[nH]1 | 175 to 179 |
| Cc1nc(C(Cl)(Cl)Cl)nc(OC(=O)C(Cl)(Cl)Cl)c1Cl | 92 |
| CC(C)(C)OC(=O)C=Cc1ccc(O)cc1C=NO | 146 to 149 |
| CS(=O)(=O)c1ccc(OC(Cc2ccc(OCCNC(=O)c3ccc(-c4ccccn4)cc3)cc2)C(=O)O)cc1 (configuration not stated) | 231 to 233 |
| CCCCO[PH](=O)Cc1cc(C(C)(C)C)c(O)c(C(C)(C)C)c1 (configuration not stated) | 85 to 87 |
| Oc1nc2ccc(F)cc2n2c(C(F)(F)F)nnc12 | 298 to 302 |

| SMILES | melting point [°C] |
| --- | --- |
| O=c1oc2ccccc2c2c(-c3ccccc3)c3c4ccccc4ccn3c12 | 313 to 315 |
| Clc1ccc2c(c1)N=Cc1ccccc1O2 | 73 to 73.5 |
| COc1cc(-c2ncn(C)c2-c2ccc3c(c2)NCCO3)cc(OC)c1OC | 160 to 162 |
| CC(=O)Nc1ccc(OC(C)CN2CCN(CCc3ccc(C(=O)O)cc3)CC2)cc1 (configuration not stated) | 234 to 235 |
| COC(=O)NNC(=S)Cc1ccc(Cl)cc1 | 148 |
| Oc1cccc(O)c1CCC(F)(F)F | 82 to 84 |
| NC(=S)c1ccc(I)cc1 | 163 to 165 |
| Cc1ccc(C(=O)O)cc1NC(=O)C(CS)Cc1ccccc1 (configuration not stated) | 192 to 194 |
| CCc1ccc(C(O)CNC(=C[N+](=O)[O-])NCCSCc2cc(C)c(CN(C)C)s2)cc1 (configuration not stated) | 112 to 115 |
| COc1cccc(CCN2C(=O)c3c(C)c(C)c(C)c(C)c3C2(O)c2ccc(F)cc2)c1 (configuration not stated) | 181 |
| ClCc1cnc(SCc2ccccc2)s1 | 57 to 61 |
| COc1ccc(OCC2(CI)CC2)cc1 | 53 to 54 |
| Cn1c(C2CC2)nc2cc(C(=O)NC3CC3)c(NC(=O)c3cc(C(F)(F)F)nn3-c3ncccc3Cl)c(Cl)c21 | 233 to 235 |
| Nc1cc(=O)n(Cc2cccc([N+](=O)[O-])c2)[nH]1 | 163 |
| CCN(CC)CCN(CCCCCSc1nc(-c2ccccc2)c(-c2ccccc2)[nH]1)C(=O)NC(C)C | 58 to 59 |
| Cc1cc(O)cc(C)c1NC=O | 239 |
| Cc1cc2c(c(C)c1O)CCC(C)(C#N)O2 (configuration not stated) | 135 |
| CCOC(=O)c1c[nH]c2c1-c1ncccc1CCC2 | 96 to 98 |
| Cc1noc(-c2sc(N3CCN(Cc4ccc(C(F)(F)F)cc4)C3=O)nc2C)n1 | 163 to 164 |
| COc1cc2oc(=O)c(CCO)c(C)c2cc1OC | 184 to 187 |
| COc1cnccc1C(C)=O | 36 to 37 |

| SMILES | melting point [°C] |
| --- | --- |
| O=C1NCCN1c1cccc(Cl)c1 | 121 to 123 |
| COC(=O)c1c(C(F)F)nc(C(F)(F)F)c(C(=O)OC)c1CI | 78 to 79 |
| Cc1ccc([N+](=O)[O-])cc1-c1ccccc1 | 69 to 71 |
| COc1cc(OCc2ccccn2)ccc1/C=C/c1cc(/C=C/c2ccc3cc[nH]c3c2)n[nH]1 | 237 to 239 |
| O=[N+]([O-])c1ccccc1Nc1ccc(-c2ccc(Nc3ccccc3[N+](=O)[O-])cc2)cc1 | 211 to 222 |
| COc1ccc2c(CC3CCN(CCc4c(C)sc5c4CCN(C(C)=O)C5)CC3)noc2c1OC | 197 to 200 |
| CCCCCCCCCCCCCCCC(=O)OCCCCN | 59 to 61 |
| O=c1[nH]c(=S)[nH]cc1-c1ccccc1 | 269 to 271 |
| COc1ncnc2ccsc12 | 92 to 94 |
| Cc1c(C(F)(F)C(F)(F)F)oc2c(C=O)cccc12 | 78 |
| CCC(C)(C)Nc1c(NCc2cc(C)ccc2C)c(=O)c1=O | 199 to 200 |
| C=C(C)CN(CCC12CC3CC(CC(C3)C1)C2)C(=O)NCCCc1ccncc1 | 108 to 109 |
| CCN1CC(=O)N(CCc2ccccc2)C1=S | 66 to 68 |
| CCc1ccc2scc(CCNC(C)=O)c2c1 | 87 to 88 |
| CCCCc1cn(Cc2ccc(C(=O)O)cc2)c2ccccc2c1=O | 224 |
| O=C(O)CC1CC(c2ccccc2)c2ccccc21 (configuration not stated) | 126 to 129 |
| O=C(CBr)NCCSC(c1ccccc1)(c1ccccc1)c1ccccc1 | 130 to 135 |
| Cc1cc(O)c(Cc2ccc(C(C)C)cc2)c(C)c1NC(=O)CC(C)(C)C | 202 to 203 |
| O=C1NC(=O)C(C2CCCC2)C(=O)N1 | 222 to 223 |
| COC1CC(C(C)CCCC(C)C)C2(C)CCC3C(=C12)CCC1CC(O)CCC13C (configuration not stated) | 127 to 128 |
| CCOc1cc(C(=O)O)on1 | 210 to 213 |

Second part, the compound after the results:

| melting point [°C] | SMILES |
| --- | --- |
| 186 to 192 | Cc1cc(C)nc(N(C(=O)NS(C)(=O)=O)c2ccccc2)n1 |
| 200 to 202 | Cc1c(Nc2c(C#N)cncc2-c2cnc(C=O)n2C)ccc2[nH]ccc12 |
| 129 | Cc1ccc(C2CCCN2S(=O)(=O)c2ccc(Cl)cc2)cc1 (racemic) |
| 168 | Cc1cc(N)nc(CCc2nc3cc(-c4ccc(S(=O)(=O)N5CCC5)cc4)cnc3[nH]2)c1 |
| 192 to 194 | O=C(Nc1ccc(-c2cnc(-c3ccc(NC(=O)C4CCCCC4)cc3)[nH]2)cc1)C1CCCCCC1 |
| 223 | O=C(Nc1ncccn1)c1c(Cl)ccc2c1OCCO2 |
| 164 to 165 | COc1ccc2c(c1)NC(=O)c1ccccc1O2 |
| 246 to 248 | COC(=O)c1ccc(O)cc1NC(=O)c1cccc2ccccc12 |
| 171 to 174 | CC1(C)CC(=O)c2c(-c3ccccn3)cn(-c3ccccn3)c2C1 |
| 205 to 206 | CC1(C)OC(=O)Nc2ccc(/C(=C/C#N)c3ccccc3)cc21 |
| 249 to 251 | Cc1cc(C)c2ncc(NC(=O)C=Cc3cc(C)c(O)c(C)c3)c(-c3ccccc3Cl)c2c1 |
| 165 to 168 | COc1ccc2c(c1)S(=O)(=O)C(C(=O)Nc1cccc(C(F)(F)F)c1)C(=O)N2C (configuration not stated) |
| 214 to 216 | Cn1ccnc1Sc1ccc(Nc2c(C#N)cnc3cc(/C=C/CCN4CCC(N5CCCC5)CC4)ccc23)cc1Cl |
| 248 to 250 | CC(=O)C1CCC2C3CCC4CC(O)C(N5CCOC(c6ccccc6)(c6ccccc6)C5)CC4(C)C3C(=O)CC12C (configuration not stated) |
| 166 to 167 | CCN(c1ccc(C)c2cc(-c3ncc(CO)s3)[nH]c12)S(=O)(=O)c1cccs1 |
| 125 to 130 | O=C(NCC12CC3CC(CC(C3)C1)C2)c1cc(-c2cccnc2N2CCCC(C(=O)O)C2)ccc1Cl (configuration not stated) |
| 181 to 183 | Nc1ncc(-c2ccccc2)nc1-c1ccc(O)cc1 |
| 159 to 160 | c1ccc(N2CCN(CCC3CCC(Nc4cccnc4)CC3)CC2)cc1 (configuration not stated) |
| 355 | O=c1[nH]c2cc(Cl)ccc2c(O)c1-n1ccccc1=O |
| 184 to 185 | CN(C)CCCSC1=C(C#N)C(c2ccccn2)(c2ccccn2)C(=O)N1 |

| melting point [°C] | SMILES |
| --- | --- |
| 261 | Cn1c(=O)c(-c2ccccc2Cl)cc2cnc(N[C@H]3CC[C@H](NS(C)(=O)=O)CC3)nc21 |
| 161 to 162 | O=c1c2nc(Br)n(Cc3ccccc3)c2ncn1Cc1ccccc1 |
| 159 to 161 | Cn1c(CO)c(-c2ccccc2)c2ccccc2c1=O |
| 134 to 136 | COc1ccccc1NC(=O)Nc1ccc(N2CCN(C(=O)Nc3ccc(OCCO)cc3Cl)CC2)cc1 |
| 237 to 238 | CC(=O)Nc1nc(-c2ccc(S(=O)(=O)COC(C)=O)cc2)cs1 |
| 198 to 201 | CC1=C(/C=C/S(=O)(=O)NC(C)C)[C@H](c2cccc([N+](=O)[O-])c2)C(C(=O)O[C@H](C)c2ccccc2)=C(C)N1 |
| 148 to 150 | N#Cc1cncnc1N1CCc2ccccc2CC1 |
| 300 to 302 | Cc1ccccc1-c1cc2cnc(N)nc2nc1N |
| 110 to 113 | O=C1C[C@H](O)C(=O)N1Cc1ccccc1 |
| 147 to 152 | Cc1ccc(Cc2c[nH]c(NCCSCc3ccco3)nc2=O)cn1 |
| 87 to 88 | O=S(=O)(Nc1ccc(Cl)cc1C(=NOCc1ccc(Cl)c(Cl)c1)c1ccccc1)C(F)(F)F |
| 123 | COc1ccc(S(=O)(=O)Nc2c(C(=O)O)cc(C#N)c(Cc3ccccc3)c2C)cc1 |
| 126 to 130 | CC(C)(C)OC(=O)N1CCC(CNc2ccccn2)CC1 |
| 288 to 290 | CCOC(=O)c1ccc(-c2cc3c(N[C@H](C)c4ccccc4)ncnc3[nH]2)cc1 |
| 214 to 216 | COC(=O)C1(C)CN(C(=O)Nc2c(C)noc2C)N=C1c1ccc(Cl)cc1 (configuration not stated) |
| 142 to 144 | O=C1COc2cc3c(cc21)C1(CO3)C(=O)N(CC2CCCO2)c2ccccc21 (configuration not stated) |
| 188 to 190 | CC1CC(=O)NN=C1c1ccc2c(c1)OCC(=O)N2C (configuration not stated) |
| 85 to 87.5 | CC(C(=O)C=CC1C(OC(=O)c2ccccc2)CC2OC(=O)CC21)C1C=CCC1 (mixture of isomers) |
| 88 to 90 | CC(=O)n1cc(Cl)c(-c2cccc(Cl)c2)c1 |
